Read-outs that look alike come from different tables or passages of the source.

Data set [1] deals with HCV Replicon RNA. Kind of data set: HCV Replicon Assay (Huh 7 Clone B cells). It counts as cell-based. To be noted: tested at 10 μM, five days. From the text: (§1) Agents Chemother. […] K., Otto, M. J., Schinazi, R. F. “Antiviral activities and cellular toxicities of modified 2′,3′-dideoxy-2′,3′-didehydrocytidine analogs” Antimicrob. Agents Chemother. 2002, 46, 3854-60. • ^cHSV-1 drug susceptibility assay was done as previously described in: Schinazi, R. F., Peters, J., Williams, C. C., Chance, D., Nahmias, A. J. “Effect of combinations of acyclovir with vidarabine or its 5′-monophosphate on herpes simplex virus in cell culture and in mice.” Antimicrob. Agents Chemother. 1982, 22, 499-507. • ^dHCV Replicon Assay^1: Huh 7 Clone B cells containing HCV Replicon RNA were seeded in a 96-well plate at 5000 cells/well, and the compounds were tested at 10 μM in triplicate immediately after seeding. Following five days incubation (37° C., 5% CO2), total cellular RNA was isolated by using versaGene RNA purification kit from Gentra. Replicon RNA and an internal control (TaqMan rRNA control reagents, Applied Biosystems) were amplified in a single step multiplex Real Time RT-PCR Assay. The antiviral effectiveness of the compounds was calculated by subtracting the threshold RT-PCR cycle of the test compound from the threshold RT-PCR cycle of the no-drug control (ΔCtHCV). A ΔCt of 3.3 equals a 1-log reduction (equal to 90% less starting material) in Replicon RNA levels. The cytotoxicity of the compounds was also calculated by using the ΔCt rRNA values. 77 (2′-Me-C) was used as the control. To determine EC90 and IC50 values^2, ΔCt: values were first converted into fraction of starting material^3 and then were used to calculate the % inhibition.
On the technique in general: A replicon is a self-replicating genome or part of one, used to study replication in cells.

Data set [2] concerns PBM cells. Kind of data set: Cytotoxicity assay in PBM cells. It counts as cell-based, human.
For data set [3], the system named is CEM cells. Description: Cytotoxicity assay in CEM cells. It counts as cell-based, human.
Data set [4] relates to Vero cells. Kind of data set: Cytotoxicity assay in Vero cells. The class given is cell-based.
The subject of data set [5] is HIV-2/pROD10. Kind of data set: HIV-2 drug susceptibility in PBM cells. The class given is cell-based. To be noted: Human immunodeficiency virus 2, PBMC.
In data set [6] the test system is HBV. Kind of data set: Anti-HBV assay (AD-38 cell line). It counts as cell-based. To be noted: Hepatitis B virus. How it is done:
The anti-HBV activity of the compounds was determined by treating the AD-38 cell line carrying wild type HBV under the control of tetracycline (see Ladner S. K., Otto M. J., Barker C. S., Zaifert K., Wang G. H., Guo J. T., Seeger C. & King R. W. Antimicrob. Agents Chemother. 1997, 41, 1715-20). Removal of tetracycline from the medium [Tet (−)] results in the production of HBV. The levels of HBV in the culture supernatant fluids from cells treated with the compounds were compared with that of the untreated controls. Control cultures with tetracycline [Tet (+)] were also maintained to determine the basal levels of HBV expression.

Data set [7] relates to MT-2 cells. Description: Intracellular nucleotides formed in MT-2 cells. The class given is in vitro ADME.
Data set [8] concerns PBM cells. To be noted: human, 4 h, 50 μM.
Data set [9] relates to adenosine deaminase. Kind of data set: Adenosine deaminase assay (deamination of nucleosides). To be noted: 50 μM, pH 7.4. It counts as in vitro ADME. How it is done: In order to determine if these 6-substituted compounds are converted to G analogs by the enzyme adenosine deaminase, a series of enzyme kinetics experiments were undertaken.
To determine the propensity for deamination of the APN nucleosides by adenosine deaminase, nucleoside compounds were incubated with the commercially available purified enzyme, and the reaction was followed spectrophotometrically. Reaction conditions were 50 mM potassium phosphate, pH 7.4, with 50 μM APN nucleoside in 0.5 mL at 25° C. Reaction time was 7 minutes with 0.002 units of enzyme and 120 minutes with 0.2 units of enzyme. (The unit definition of adenosine deaminase is one unit will deaminate 1.0 μmol of adenosine to inosine per minute at pH 7.5 at 25° C.) Deoxyadenosine was the positive control which was 59% deaminated under the given conditions in 7 minutes with 0.002 units of enzyme. Deoxyguanosine was the negative control. Optical density was measured at 265 nm or 285 nm. The difference in optical density between the beginning and the end of the experiment was divided by the extinction coefficient then multiplied by the volume of the reaction to determine the number of mols of substrate transformed into product. Mols of product were divided by mols of substrate equivalent to a 100% complete reaction then multiplied by 100 to obtain percent deamination. The limit of detection was 0.001 optical density units.

Data set [10] concerns HIV-1/LAI. Description: Anti-HIV-1 assay in PBM cells. It counts as cell-based. To be noted: Human immunodeficiency virus 1, PBMC, Tables 2-4, n = 3 for the MP prodrugs. As for the experimental part:
Stock solutions (20-40 mM) of the compounds were prepared in sterile DMSO and then diluted to the desired concentration in growth medium. Cells were infected with the prototype HIV-1LAI at a multiplicity of infection of 0.01. Virus obtained from the cell supernatant was quantified on day 6 after infection by a reverse transcriptase assay using (rA)n·(dT)12-18 as template-primer. […] The antiviral EC50 and EC90 were obtained from the concentration-response curve using the median effective method described previously (see Chou T.-C. & Talalay P. Adv. Enzyme Regul. 1984, 22, 27-55; Belen'kii M. S. & Schinazi R. F. Antiviral Res. 1994, 25, 1-11).

The test system of data set [11] is HSV-1. Description: HSV-1 drug susceptibility assay. To be noted: Human alphaherpesvirus 1. It counts as cell-based.
From the text: as §1

The mark [12] stands for this setting: Homo sapiens, PBMC, Table 5, read-out: Toxicity IC50 PBM.
Where [13] appears, read: Homo sapiens, CCRF-CEM, Table 5, read-out: Toxicity IC50 CEM.
The mark [14] stands for this setting: Chlorocebus sabaeus, Vero, Table 5, read-out: Toxicity IC50 Vero.
The mark [15] stands for this setting: Hepatitis C virus, Huh-7, 120 h.

On to `C[C@@]1(O)[C@H](O)[C@@H](CO)O[C@H]1n1ccc(N)nc1=O` [2′-Me—C, reference compound], for which, in data set [1], the EC50 (as a rule, the concentration at which the effect is half-maximal) was 1.3 µM. Also, the EC90 (in general, the concentration needed for an effect of 90%) in data set [1] was determined as 5.4 µM. Moreover, the IC50 (in general, the concentration needed to halve the response being measured) in data set [2] (Table 5, read-out: Toxicity IC50 PBM) is 29.4 µM; in [3] (Table 5, read-out: Toxicity IC50 CEM), 24.5 µM; in data set [4] (Table 5, read-out: Toxicity IC50 Vero), over 100 µM.
`Nc1ccn([C@H]2CS[C@@H](CO)O2)c(=O)n1` [Compound 3TC, (−)-2′,3′-dideoxy-3′-thiacytidine, reference compound] displayed an EC50 in data set [5] of 0.075 µM. The EC90 is 0.42 µM in data set [5] and under 10 µM in data set [6]. For the same compound, the IC50 in [2] (setting [12]), in data set [3] (setting [13]) and in data set [4] (setting [14]) was over 100 µM throughout.
Regarding `[N-]=[N+]=NC1C[C@H](n2cnc3c(O)nc(N)nc32)O[C@@H]1CO` (stereo partly drawn) [Compound 56, 3′-Azido-2′,3′-dideoxyguanosine], the “concentration at which phosphorylation reaches steady state” value in [7] (MT-2, four different concentrations) was 30 µM. In addition, the major metabolite result in [8] is “RFS-457-TP as the major metabolite”.
Take `[N-]=[N+]=N[C@H]1C[C@H](n2cnc3c(Cl)nc(N)nc32)O[C@@H]1CO` [Compound 68, ((2S,3S,5R)-5-(2-amino-6-chloro-9H-purin-9-yl)-3-azidotetrahydrofuran-2-yl)methanol]: the “Deamination in 7 min (0.002 units Adenosine Deaminase)” value in data set [9] (7 min) was 12.81 ± 1.57%. In addition, in data set [9] (120 min), the “Deamination in 120 min (0.2 units Adenosine Deaminase)” value worked out at 240.53 ± 5.86%. The “level of unchanged drug” value in data set [7] (MT-2 cells treated with drug for 30 min) is on record as “Negligible levels of 6415 were detected”. In [7] (MT-2 cells, 4 hr at 50 μM), the “AZG-TP levels compared with AZG treatment” value is on record as “higher”. In [8], the “nucleotides detected (LC/MS)” value is listed as “detection of RFS-457-TP” and the “species not detected (LC/MS)” value is listed as “Neither Compound 6415 nor its phosphates were detected”.
Consider `CCOC(=O)[C@H](C)NP(=O)(OC[C@H]1O[C@@H](n2cnc3c(Cl)nc(N)nc32)CC1N=[N+]=[N-])Oc1ccccc1` (stereo partly drawn) [RS-784], for which, in data set [10] (read-out: HIV EC50), the half-maximal effective concentration (EC50) was found to be 0.035 µM. Besides, the EC90 in [10] (read-out: HIV EC90) was determined as 0.1 µM. For the same compound, the IC50 in data set [2] (Homo sapiens, PBMC, Tables 2-4, read-out: PBM IC50) is 11.6 µM; in data set [3] (Homo sapiens, CCRF-CEM, Tables 2-4, read-out: CEM IC50), 13.5 µM; in [4] (Chlorocebus sabaeus, Vero, read-out: Vero IC50) it was over 100 µM.
Consider `C=CCNc1nc(N)nc2c1ncn2[C@H]1CC(N=[N+]=[N-])[C@@H](CO)O1` (stereo partly drawn) [drawing 47], for which the EC50 is over 100 µM in data set [11] and over 10 µM in data set [1] (setting [15]). The concentration for an effect of 90% (EC90) in data set [11] was over 100 µM; in data set [1] (setting [15]) it was over 10 µM. Moreover, the half-maximal inhibitory concentration (IC50) in data set [2] (setting [12]), in [3] (setting [13]) and in [4] (setting [14]) was over 100 µM each time.
Turning to `C=CCN(C)c1nc(N)nc2c1ncn2[C@H]1CC(N=[N+]=[N-])[C@@H](CO)O1` (stereo partly drawn) [drawing 48], the results for the EC50 in data set [11] and in [1] (setting [15]) were over 100 µM and over 10 µM, respectively. Moreover, the results for the EC90 in [11] and in [1] (setting [15]) were over 100 µM and over 10 µM, respectively. Moreover, the 50% inhibitory concentration (IC50) in data set [2] (setting [12]) was over 100 µM; in [3] (setting [13]), 27 µM; in [4] (Chlorocebus sabaeus, Vero, read-out: Toxicity IC50 Vero) it was 32 µM.
As to `[N-]=[N+]=NC1C[C@H](n2cnc3c(NCCCCCO)nc(N)nc32)O[C@@H]1CO` (stereo partly drawn) [drawing 49], the EC50 in data set [11] is over 100 µM; in data set [1] (setting [15]), over 10 µM. Besides, the EC90 in data set [11] is over 100 µM; in [1] (setting [15]), over 10 µM. The IC50 in data set [2] (setting [12]), in data set [3] (setting [13]) and in data set [4] (setting [14]) was over 100 µM in each case.
Consider `CC(C)(CO)Nc1nc(N)nc2c1ncn2[C@H]1CC(N=[N+]=[N-])[C@@H](CO)O1` (stereo partly drawn) [drawing 50], for which the EC50 is over 100 µM in data set [11] and over 10 µM in data set [1] (setting [15]). The EC90 in data set [11] was over 100 µM; in [1] (setting [15]), over 10 µM. Moreover, the half-maximal inhibitory concentration (IC50) in data set [2] (setting [12]), in data set [3] (setting [13]) and in data set [4] (setting [14]) was over 100 µM in each case.
Consider `CC(CO)Nc1nc(N)nc2c1ncn2[C@H]1CC(N=[N+]=[N-])[C@@H](CO)O1` (stereo partly drawn) [drawing 51], for which the EC50 was over 100 µM in data set [11] and over 10 µM in data set [1] (setting [15]). In addition, the EC90 in [11] is over 100 µM; in data set [1] (setting [15]), over 10 µM. Further, the IC50 in [2] (setting [12]), in [3] (setting [13]) and in [4] (setting [14]) was over 100 µM throughout.
As to `CN(C)c1nc(N)nc2c1ncn2[C@H]1CC(N=[N+]=[N-])[C@@H](CO)O1` (stereo partly drawn) [drawing 53], the EC50 in data set [11] is over 100 µM; in [1] (setting [15]), over 10 µM. In addition, the results for the concentration for an effect of 90% (EC90) in data set [11] and in data set [1] (setting [15]) were over 100 µM and over 10 µM, respectively. Further, the IC50 in data set [2] (setting [12]), in [3] (setting [13]) and in data set [4] (setting [14]) was over 100 µM each time.
Consider `[N-]=[N+]=NC1C[C@H](n2cnc3c(NC4CC4)nc(N)nc32)O[C@@H]1CO` (stereo partly drawn) [drawing 56], for which the EC50 is over 100 µM in [11] and over 10 µM in [1] (setting [15]). Moreover, the results for the concentration for an effect of 90% (EC90) in data set [11] and in [1] (setting [15]) were over 100 µM and over 10 µM, respectively. For the same compound, the IC50 in data set [2] (setting [12]), in data set [3] (setting [13]) and in data set [4] (setting [14]) was over 100 µM each time.
For the compound `COCCNc1nc(N)nc2c1ncn2[C@H]1CC(N=[N+]=[N-])[C@@H](CO)O1` (stereo partly drawn) [drawing 58], the EC50 in data set [1] (setting [15]) is over 10 µM. Further, in [1] (setting [15]), the EC90 was over 10 µM. Moreover, the IC50 in [2] (setting [12]), in data set [3] (setting [13]) and in data set [4] (setting [14]) was over 100 µM each time.
